Source: patent US9545367B2, “Cosmetic use of N-heteroarylbisamide analogs and related compounds” (Avon Products, Inc., priority 2011, dated 2017)

Assays:
Type in all cases: cell-based, human
[1] = system: explanted skin tissue; assay: Skin explant assay, hematoxylin and eosin histology; settings: skin explants, 0.025 weight percent, administered days 0, 1, 2, 5, 7; nine days in culture; vs vehicle control; FIG. 1B
Description: (§1) Samples of explanted skin tissue were obtained from an abdominal plasty of a person. Samples (33 samples in total) were maintained in tissue culture medium at 37° C. in a humid, 5%-CO2 atmosphere for the duration of the study.
(§2) The skin tissue explants were then distributed into appropriate controls or treated samples in triplicates. The controls received only a vehicle, and the treatment samples received 0.025 weight percent of Analog A disclosed above. The vehicle and Analog A were administered to the controls and treatment samples, respectively, on days 0, 1, 2, 5, and 7.
(§3) After nine days in culture the vehicle and Analog A treated samples were collected and processed for histology and immunostaining Initially, the samples were fixed in buffered formalin for 24 hours. […] Tissue samples were also stained for procollagen I using a Procollagen I rat monoclonal antibody with streptavidin alkaline phosphatase conjugate (Vectastain, Vector labs) and Vector® blue substrate detection system (Vector Laboratories LTD., Peterborough, UK), and hyaluronic acid using biotinylated affinity purified Hyaluronic Acid Binding Protein ((bovine nasal cartilage) Calbiochem, EMD Chemicals USA) and detected using the aforementioned detection system […]

[2] = system: Hyaluronic Acid; assay: Skin explant assay, Hyaluronic Acid Binding Protein staining; settings: skin explants, 0.025 weight percent, nine days in culture; FIGS. 2A and 2B
Description: as §1, §2, §3

[3] = system: Procollagen 1; assay: Skin explant assay, procollagen I immunostaining; settings: skin explants, 0.025 weight percent, nine days in culture; FIGS. 3A and 3B
Description: as §1, §2, §3

Cc1cccc(-n2nc(C(C)(C)C)cc2NC(=O)CCCC(=O)NC(C)C(C)C)c1 (stereo not shown) [Analog A]
cell density throughout the basal epidermis (hematoxylin and eosin stain) [1]: maintained their cell density throughout the basal epidermis
contact with the basal layer (hematoxylin and eosin stain) [1]: good contact with the basal layer
expression of Hyaluronic Acid in comparison to the vehicle control [2]: increased
expression of Procollagen 1 in comparison to the vehicle control [3]: increased
